The target in assay [1] is T1, GTPase KRas (Homo sapiens, UniProt P01116, G12D).
Assay [2] deals with T1, GTPase KRas. The source holds these as a separate data set.

T1 sequence (P01116 whole entry G12D): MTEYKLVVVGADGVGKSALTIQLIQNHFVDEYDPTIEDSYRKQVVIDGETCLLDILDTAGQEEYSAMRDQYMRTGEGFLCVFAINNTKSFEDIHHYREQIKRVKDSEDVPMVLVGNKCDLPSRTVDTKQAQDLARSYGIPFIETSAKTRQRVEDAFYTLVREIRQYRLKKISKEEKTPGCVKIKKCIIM

Regarding `Oc1cc(Cl)c(C2CC2)c(-c2ncc3c(N4CCCC5(CCO5)C4)nc(OC[C@@]45CCCN4C[C@H](F)C5)nc3c2F)c1` (stereo not given in full), the 50% inhibitory concentration (IC50) amounted to 66 nM in assay [1] and 2 nM in assay [2].

For `CCc1cccc2cc(O)cc(-c3ncc4c(N5CCCC6(CCO6)C5)nc(OC[C@@]56CCCN5C[C@H](F)C6)nc4c3F)c12` (stereo not given in full), the half-inhibitory concentration (IC50) was 11 nM in assay [1] and 3 nM in assay [2].

With `CCc1c(F)ccc2cc(O)cc(-c3ncc4c(N5CCCC6(CC(=O)N6)C5)nc(OC[C@@]56CCCN5C[C@H](F)C6)nc4c3F)c12` (stereo not given in full), the 50% inhibitory concentration (IC50) was determined as 44 nM in assay [1] and 2 nM in assay [2].

Turning to `Oc1cc(-c2ncc3c(N4CCCC5(CC(O)C5)C4)nc(OC[C@@]45CCCN4C[C@H](F)C5)nc3c2F)c2c(F)c(F)ccc2c1` (stereo not given in full), the half-maximal inhibitory concentration (IC50) is 119 nM in assay [1] and 2 nM in assay [2].

On to `Oc1cc(-c2ncc3c(N4CCC[C@]5(CCO5)C4)nc(OC[C@@]45CCCN4C[C@H](F)C5)nc3c2F)c2c(Cl)c(F)ccc2c1`, for which the IC50 in assay [1] came to 3 nM; in assay [2] it was 1 nM.

As for `Oc1cc(-c2ncc3c(N4CCCC5(CCO5)C4)nc(OC[C@@]45CCCN4C[C@H](F)C5)nc3c2F)c2c(F)c(F)ccc2c1` (stereo not given in full), the 50% inhibitory concentration (IC50) in assay [1] stood at 9 nM; in assay [2] it was 2 nM.

For the molecule `CCc1c(F)ccc2cc(O)cc(-c3ncc4c(N5CC(O)CC6(CC6)C5)nc(OC[C@@]56CCCN5C[C@H](F)C6)nc4c3F)c12` (stereo not given in full), the IC50 in assay [1] is 34 nM; in assay [2], 2 nM.

Regarding `CCc1c(F)ccc2cc(O)cc(-c3ncc4c(N5CCCC6(CCO6)C5)nc(OC[C@@]56CCCN5C[C@H](F)C6)nc4c3C)c12` (stereo not given in full), the IC50 is 7 nM in assay [1] and 4 nM in assay [2].

For the molecule `CCc1cccc2cc(O)cc(-c3ncc4c(N5CCCC6(CC(O)C6)C5)nc(OC[C@@]56CCCN5C[C@H](F)C6)nc4c3F)c12` (stereo not given in full), the IC50 in assay [1] was found to be 22 nM; in assay [2], 1 nM.

In the case of `C#Cc1c(F)ccc2cc(O)cc(-c3ncc4c(N5CCCC6(CCO6)C5)nc(OC[C@@]56CCCN5C[C@H](F)C6)nc4c3F)c12` (stereo not given in full), the IC50 in assay [1] was determined as 43 nM; in assay [2], 1 nM.

In general, IC50 refers to the concentration that gives 50% inhibition. The low end stands for inhibition by little substance, the high end for a need for much substance.

The record behind these values is ChEMBL document CHEMBL5252668, “Targeting the "Undruggable" Driver Protein, KRASG12D, as Potential Therapy in Prostate Cancer” (ACS Med Chem Lett, 2023).
